Assays:
Type in all cases: in vivo, mouse
[1] = test system: C57/BI6N wildtype mice; assay: Lapatinib treatment of elderly mice: thymus cell counts and flow cytometry of T lymphocyte populations; settings: n=5/group
Protocol: […] All mice were housed on a 12 hour light/dark cycle, in individually ventilated cages with access to standard rodent diet (Harlan, UK) and tap water ad libitum. Mice were euthanized by intraperitoneal injection of 0.2 mL sodium pentobarbital (Euthatal, Merial Animal Health, UK).
(§1) Dox was administered ad libitum in a foil-wrapped standard drinking bottle; fresh Dox was given every 48 hours. 300 mg Lapatinib (#J62401, Alfa Aesar, USA) was prepared in 12 mL DMSO (#472301, Sigma, UK) at a final concentration of 25 mg/mL. Mice were given 2.5 mg (100 µL) Lapatinib or an equivalent dose of DMSO alone 5 times per week for 4 weeks by oral gavage. One hour prior to euthanasia all mice for subsequent histological analysis were injected with 150 μL of 10 mg/mL BrdU solution (Invitrogen, UK) to label proliferating cells.
Thymus and lymph nodes were prepared for flow cytometry by incubation in a 2 mL solution of RPMI […] (Invitrogen, UK) containing Liberase TL (0.3 mg/mL; Roche, Germany) plus DNAse I (0.2 mg/ml, Roche, Germany) for 30 minutes at 37 degrees Celsius. Thymus and lymph node tissue was then macerated through a […] filter (BD, USA) and enzymes inactivated by further washing with 30 mL PBS (Invitrogen, UK) plus 5 mM EDTA (Sigma, UK). This single cell suspension was centrifuged for 5 minutes at 1250 rpm, the supernatant removed, and the cell pellet resuspended in 3 mL RPMI 1640 (lymph nodes) or 5 mL RPMI 1640 (thymus). Total cell counts were obtained using a Millicell automated hematocytometer. Blood cells were prepared for flow cytometry by direct blood collection from the descending aorta in a capillary Microvette tube containing EDTA (CB 300 K2E, Sarstedt, Germany), elimination of red blood cells using lysis buffer (R7757, Sigma, UK) and dilution in 30 mL RPMI 1640. Blood cells were then pelleted by centrifugation as above and resuspended in 20 mL RPMI 1640 and cell counts obtained using a Millicell automated hematocytometer.
All cell suspensions (thymus, lymph node, blood) were diluted to 1 million cells/mL for antibody staining and flow cytometry analysis. Antibodies for flow cytometry analysis were as follows: CD3-FITC (17a2, Invitrogen, UK), CD4-PE (I3t4, BD Pharmingen, UK), CD8a-Q605 (53-6.7, eBioscience, UK), CD19-A421 (6D5, Biolegend, UK), CD11b-A421 (eBioscience, UK), Ter119-A421 (TER119, eBioscience, UK), CD47-APC780 (1M7, eBioscience, UK), CD25-A660 (7D4, eBioscience, UK), Nk1.1-APC780 (PK136, eBioscience, UK), NkP46-a660 (29a1.4, eBioscience, UK). All antibodies were diluted to 2 μL/10̂6 cells in 1 mL final volume; unstained and single antibody stained controls were used to set all voltage and gate compensations. Antibody staining was for 30 minutes at 4 degrees Celsius, after which time cells were centrifuged at 1250 rpm for 5 minutes and cell pellets resuspended in 1 mL RPMI 1640. All flow cytometry analysis was performed on either an LSR2 or LSR Fortessa flow cytometry system. A minimum of 10,000 events was collected for each analysis (phenotype, T cell developmental stage, peripheral blood and lymph node cell analysis). All experiments represent at least an n=4 for each condition and all analyses were done using FlowJo software. Thymus tissue sections were prepared for BrdU immunohistochemistry by dewaxing using an automated tissue staining system (TissueTek), blocking for 1 hour at room temperature in blocking solution (PBS containing 10% fetal bovine serum (10270-106, Invitrogen, UK) plus fish skin gelatin (G7765, Sigma, UK)). A BrdU primary antibody (rat, Covance, UK) was diluted in blocking solution and slides were incubated overnight in this antibody solution at 4 degrees Celsius. Slides were then washed in PBS and an anti-rat Alexa 555 secondary antibody (Invitrogen, UK) was applied in blocking solution for 3 hours at room temperature, washed, and slides coverslipped using Mowiol mounting media.

[2] = test system: C57/BI6N wildtype mice; assay: Lapatinib treatment of geriatric mice: thymus size/weight; settings: 18 month old mice, 2.5 mg/day lapatinib oral gavage 5x/week for 5 weeks vs DMSO control, n=10/group, p<0.05
[3] = test system: C57/BI6N wildtype mice; assay: Lapatinib treatment of geriatric mice: thymus histology and BrdU immunohistochemistry; settings: lapatinib vs control
Protocol: Eighteen month old C57/BI6N wildtype mice used in Lapatinib studies were purchased from Charles River Laboratories (UK). All mice were housed on a 12 hour light/dark cycle, in individually ventilated cages with access to standard rodent diet (Harlan, UK) and tap water ad libitum. Mice were euthanized by intraperitoneal injection of 0.2 mL sodium pentobarbital (Euthatal, Merial Animal Health, UK).
as §1
All cell suspensions (thymus, lymph node, blood) were diluted to 1 million cells/mL for antibody staining and flow cytometry analysis. Antibodies for flow cytometry analysis were as follows: CD3-FITC (17a2, Invitrogen, UK), CD4-PE (I3t4, BD Pharmingen, UK), CD8a-Q605 (53-6.7, eBioscience, UK), CD19-A421 (6D5, Biolegend, UK), CD11b-A421 (eBioscience, UK), Ter119-A421 (TER119, eBioscience, UK), CD47-APC780 (1M7, eBioscience, UK), CD25-A660 (7D4, eBioscience, UK), Nk1.1-APC780 (PK136, eBioscience, UK), NkP46-a660 (29a1.4, eBioscience, UK). All antibodies were diluted to 2 μL/10̂6 cells in 1 mL final volume; unstained and single antibody stained controls were used to set all voltage and gate compensations. Antibody staining was for 30 minutes at 4 degrees Celsius, after which time cells were centrifuged at 1250 rpm for 5 minutes and cell pellets resuspended in 1 mL RPMI 1640. All flow cytometry analysis was performed on either an LSR2 or LSR Fortessa flow cytometry system. A minimum of 10,000 events was collected for each analysis (phenotype, T cell developmental stage, peripheral blood and lymph node cell analysis). […]

[4] = 15-18 month old mice vs DMSO treated controls
[5] = 15 month old mice, CD4/CD8/lineage negative thymocytes, vs DMSO

CS(=O)(=O)CCNCc1ccc(-c2ccc3ncnc(Nc4ccc(OCc5cccc(F)c5)c(Cl)c4)c3c2)o1 [Lapatinib, N-[3-chloro-4-[(3-fluorophenyl)methoxy]phenyl]-6-[5-[(2-methylsulfonylethylamino)methyl]-2-furyl]quinazolin-4-amine] was tested, and the “CD4 T cell production” value [1, 4] was “trend towards increased”, the “CD8 T cell production” value [1, 4] was “trend towards increased” and the “DN-T T cell production” value [1, 4] was “trend towards increased”. For the same compound, the “production of immature (double positive, DP-T) T lymphocytes” value [1, 4] was “increases production”, the thymus cell abundance [1, 4] was “increased thymus cell abundance” and the “DN1 (CD44+/CD25−) immature T cell abundance” value [1, 5] was “significantly reduced”. The “DN2 (CD44+/CD25+) immature T cell abundance” value [1, 5] was “significantly reduced”, the “DN4 (CD44/CD25 negative) cell abundance” value [1, 5] was “increased” and the “thymus size / thymus weight” value [2] was “increase thymus weight”. The “thymus size / thymus weight” value ([2]; listed as lapatinib) was “increases thymus size”, the “BrdU cell abundance (thymocyte proliferation)” value ([3]; BrdU staining, n=5/treatment type, p<0.05) was “statistically significant increase in thymocyte proliferation” and the “thymus histological appearance (cortico-medullary boundaries)” value ([3]; H&E sections) was “restored thymic cortico-medullary boundaries and improved overall thymus histological appearance”. For the same compound, the thymus involution ([3]; elderly mice) was “reverses thymus involution”.
